{
  "source": "patent EP3967331A1",
  "about": "“ULTRA-SMALL FLUORESCENT ORGANIC NANOPARTICLES” (Centre national de la recherche scientifique, priority 2020, dated 2022)",
  "experiment": "Nile Red probing of the hydrophobic core",
  "assay_type": "physicochemical",
  "conditions": "Nile Red 200 nM, excitation 540 nm, water",
  "experimental": "In contrast to the out-stretched configuration of a polymer brush, the folded monomolecular nanoparticle is expected to bear a hydrophobic core (Figure 1), similar to that of micelles made of surfactants. To evidence the presence of this core, we used a solvatochromic dye Nile Red, which is a common tool for identifying low polar environment of micelles^81 and single-chain polymeric NPs. Fluorescence spectra of Nile Red at fixed concentration (200 nM) were recorded with addition of different concentrations of fully PEGylated PMAO polymer with 5 mol% BDP1 (Figure12. A drastic increase in the fluorescence intensity of Nile Red was observed accompanied by ∼30 nm blue shift of the emission band (Figure12A,B,D. The increase in the intensity stabilized above 200 nM polymer concentration (Figure12C, which corresponded well to 1/1 dye/polymer molar ratio. Below this concentration, multiple Nile Red molecules per particle can be present, which leads to dye self-quenching, explaining lower intensity at lower polymer concentrations. On the other hand, the blue shifted emission of Nile Red at ∼630 nm indicates the presence of a hydrophobic binding site in these NPs. The NPs were compared with micelles of Tween 80, having a hydrophobic core formed by hydrocarbon chains. […]",
  "data": [
    {"smiles": "CCCCCCCC/C=C\\CCCCCCCC(=O)OCCOCC(OCCO)C1OCC(OCCO)C1OCCO", "note": "(stereo not shown) [Tween 80]", "values": [
      {"measurement": "Emission of Nile Red", "result": "~640", "unit": "nm"}
    ]}
  ]
}
